Measurements from PMC5218480 (PLoS ONE, 2017).

Tested on: MV-4-11 cells
Assay: Gene expression microarray analysis (Affymetrix PrimeView) and GSEA
Type: cell-based, human
Set-up: RFU PODN (11730768_x_at) / Fold change /veh PODN (11730768_x_at) / RFU LINC00158 (11744669_a_at) / Fold change /veh LINC00158 (11744669_a_at) / RFU DUSP10 (11751237_a_at) / Fold change /veh DUSP10 (11751237_a_at) / RFU ID3 (11757404_x_at) / Fold change /veh ID3 (11757404_x_at) / RFU PLEKHG5 (11737974_s_at) / Fold change /veh PLEKHG5 (11737974_s_at) / RFU LRRC4B (11730491_at) / Fold change /veh LRRC4B (11730491_at) / RFU GIMAP4 (11747438_a_at) / Fold change /veh GIMAP4 (11747438_a_at) / RFU KRT8 (11758183_x_at) / Fold change /veh KRT8 (11758183_x_at) / RFU CNN1 (11734310_a_at) / Fold change /veh CNN1 (11734310_a_at) / RFU VPS37D (11726825_at) / Fold change /veh VPS37D (11726825_at) / RFU C10orf10 (11716522_x_at) / Fold change /veh C10orf10 (11716522_x_at) / RFU KIR2DL2 /// KIR2DL4 /// KIR2DL5A /// KIR2DL5B /// KIR2DS1 /// KIR2DS2 /// KIR2DS3 /// KIR2DS4 /// KIR3DL3 /// KIR3DL3 /// KIR3DS1 (11738374_at) / Fold change /veh KIR2DL2 /// KIR2DL4 /// KIR2DL5A /// KIR2DL5B /// KIR2DS1 /// KIR2DS2 /// KIR2DS3 /// KIR2DS4 /// KIR3DL3 /// KIR3DL3 /// KIR3DS1 (11738374_at) / RFU C1QL1 (11718748_at) / Fold change /veh C1QL1 (11718748_at) / RFU TMPRSS4 (11747572_a_at) / Fold change /veh TMPRSS4 (11747572_a_at) / RFU HAMP (11756126_x_at) / Fold change /veh HAMP (11756126_x_at) / RFU RNFT2 (11725882_a_at) / Fold change /veh RNFT2 (11725882_a_at) / RFU NR4A2 (11747474_a_at) / Fold change /veh NR4A2 (11747474_a_at) / RFU ABCC12 (11746883_a_at) / Fold change /veh ABCC12 (11746883_a_at) / RFU TMEM136 (11760407_x_at) / Fold change /veh TMEM136 (11760407_x_at) / RFU CLDN22 /// WWC2 (11732394_at) / Fold change /veh CLDN22 /// WWC2 (11732394_at) / RFU HLA-DPB1 (11760878_x_at) / Fold change /veh HLA-DPB1 (11760878_x_at) / RFU SPINT1 (11716480_a_at) / Fold change /veh SPINT1 (11716480_a_at) / RFU GAP43 (11754022_s_at) / Fold change /veh GAP43 (11754022_s_at) / RFU A4GNT (11735810_at) / Fold change /veh A4GNT (11735810_at) / RFU PRB3 (11715151_x_at) / Fold change /veh PRB3 (11715151_x_at) / RFU TUBB4B (11761932_at) / Fold change /veh TUBB4B (11761932_at) / RFU CAPN14 (11732068_a_at) / Fold change /veh CAPN14 (11732068_a_at) / RFU TMCC2 (11721928_a_at) / Fold change /veh TMCC2 (11721928_a_at) / RFU IRGQ (11745062_a_at) / Fold change /veh IRGQ (11745062_a_at) / RFU FAM174B (11720279_a_at) / Fold change /veh FAM174B (11720279_a_at) / RFU TMPRSS4 (11748680_a_at) / Fold change /veh TMPRSS4 (11748680_a_at) / RFU FAM212B (11763350_a_at) / Fold change /veh FAM212B (11763350_a_at) / RFU PLEKHG5 (11743358_a_at) / Fold change /veh PLEKHG5 (11743358_a_at) / RFU ZSCAN30 (11745921_a_at) / Fold change /veh ZSCAN30 (11745921_a_at) / RFU CMKLR1 (11741424_a_at) / Fold change /veh CMKLR1 (11741424_a_at) / RFU LOC101060620 /// MAPK8IP1 (11723275_at) / Fold change /veh LOC101060620 /// MAPK8IP1 (11723275_at) / RFU SPTSSB (11747773_x_at) / Fold change /veh SPTSSB (11747773_x_at) / RFU PRSS12 (11739890_at) / Fold change /veh PRSS12 (11739890_at) / RFU BIN1 (11741810_x_at) / Fold change /veh BIN1 (11741810_x_at) / RFU WNT11 (11732464_a_at) / Fold change /veh WNT11 (11732464_a_at) / RFU C10orf10 (11716521_a_at) / Fold change /veh C10orf10 (11716521_a_at) / RFU C5orf56 (11738089_at) / Fold change /veh C5orf56 (11738089_at) / RFU CYB561 (11721691_x_at) / Fold change /veh CYB561 (11721691_x_at) / RFU ANKRD19P (11752326_a_at) / Fold change /veh ANKRD19P (11752326_a_at) / RFU OR2T12 /// OR2T33 /// OR2T8 (11738714_s_at) / Fold change /veh OR2T12 /// OR2T33 /// OR2T8 (11738714_s_at) / RFU VCAN (11748164_a_at) / Fold change /veh VCAN (11748164_a_at) / RFU JSRP1 (11732532_at) / Fold change /veh JSRP1 (11732532_at) / RFU KRTAP10-11 (11738290_x_at) / Fold change /veh KRTAP10-11 (11738290_x_at) / RFU MYO3A (11730013_a_at) / Fold change /veh MYO3A (11730013_a_at) / RFU EBF3 (11725865_a_at) / Fold change /veh EBF3 (11725865_a_at) / RFU CAMK2N1 (11719241_x_at) / Fold change /veh CAMK2N1 (11719241_x_at) / RFU C5orf56 (11738088_a_at) / Fold change /veh C5orf56 (11738088_a_at) / RFU OLFML3 (11715873_a_at) / Fold change /veh OLFML3 (11715873_a_at) / RFU LOC100653217 /// NTM (11731650_a_at) / Fold change /veh LOC100653217 /// NTM (11731650_a_at) / RFU MAPK11 (11762145_a_at) / Fold change /veh MAPK11 (11762145_a_at) / RFU FIZ1 (11724087_x_at) / Fold change /veh FIZ1 (11724087_x_at) / RFU OASL (11726364_x_at) / Fold change /veh OASL (11726364_x_at) / RFU SOX15 (11748057_x_at) / Fold change /veh SOX15 (11748057_x_at) / RFU CD79A (11719716_a_at) / Fold change /veh CD79A (11719716_a_at) / RFU HIST1H1D (11736915_at) / Fold change /veh HIST1H1D (11736915_at) / RFU CASKIN2 (11723855_a_at) / Fold change /veh CASKIN2 (11723855_a_at) / RFU LOC730098 (11760151_x_at) / Fold change /veh LOC730098 (11760151_x_at) / RFU OR4N2 (11742367_at) / Fold change /veh OR4N2 (11742367_at) / RFU PRRT2 (11749266_a_at) / Fold change /veh PRRT2 (11749266_a_at) / RFU SNX32 (11753110_a_at) / Fold change /veh SNX32 (11753110_a_at) / RFU CDHR5 (11726645_a_at) / Fold change /veh CDHR5 (11726645_a_at) / RFU RCAN1 (11760418_a_at) / Fold change /veh RCAN1 (11760418_a_at) / RFU FAM167A (11723789_a_at) / Fold change /veh FAM167A (11723789_a_at) / RFU FAM26E (11764081_at) / Fold change /veh FAM26E (11764081_at) / RFU ISYNA1 (11749810_s_at) / Fold change /veh ISYNA1 (11749810_s_at) / RFU ACY1 (11761880_at) / Fold change /veh ACY1 (11761880_at) / RFU 11764098_at / Fold change /veh 11764098_at / RFU SAMD14 (11745864_x_at) / Fold change /veh SAMD14 (11745864_x_at) / RFU NPB (11741838_a_at) / Fold change /veh NPB (11741838_a_at) / RFU TMPRSS6 (11731388_a_at) / Fold change /veh TMPRSS6 (11731388_a_at) / RFU KRTAP10-2 (11738614_at) / Fold change /veh KRTAP10-2 (11738614_at) / RFU ARHGAP8 /// PRR5-ARHGAP8 (11727945_x_at) / Fold change /veh ARHGAP8 /// PRR5-ARHGAP8 (11727945_x_at) / RFU KRTAP5-7 /// NADSYN1 (11734609_at) / Fold change /veh KRTAP5-7 /// NADSYN1 (11734609_at) / RFU RASL12 (11751679_a_at) / Fold change /veh RASL12 (11751679_a_at) / RFU CDKN2B (11736163_a_at) / Fold change /veh CDKN2B (11736163_a_at) / RFU PRF1 (11729649_at) / Fold change /veh PRF1 (11729649_at) / RFU, ZNF638 /// ZNF638-IT1 / Fold change vs veh, ZNF638 /// ZNF638-IT1 / RFU, PANK3 / Fold change vs veh, PANK3 / RFU, SH3YL1 / Fold change vs veh, SH3YL1 / RFU, ZEB2 / Fold change vs veh, ZEB2 / RFU, NRIP1 / Fold change vs veh, NRIP1 / RFU, PTTG1IP / Fold change vs veh, PTTG1IP / RFU, CAPN2 / Fold change vs veh, CAPN2 / RFU, MED14 / Fold change vs veh, MED14 / RFU, SNORA58 / Fold change vs veh, SNORA58 / RFU, C1orf63 / Fold change vs veh, C1orf63 / RFU, LRRFIP1 / Fold change vs veh, LRRFIP1 / RFU, NDUFAF7 / Fold change vs veh, NDUFAF7 / RFU, SLC12A2 / Fold change vs veh, SLC12A2 / RFU, IBTK / Fold change vs veh, IBTK / RFU, ESF1 / Fold change vs veh, ESF1 / Fold change vs veh, TMEM50B / RFU, TAOK1 / Fold change vs veh, TAOK1 / RFU, ACBD3 / Fold change vs veh, ACBD3 / RFU, TMA16 / Fold change vs veh, TMA16 / RFU, RWDD3 / Fold change vs veh, RWDD3 / RFU, BCAT1 / Fold change vs veh, BCAT1 / RFU, EDEM3 / Fold change vs veh, EDEM3 / RFU, TMEM33 / Fold change vs veh, TMEM33 / RFU, WDR75 / Fold change vs veh, WDR75 / RFU, AHCTF1 / Fold change vs veh, AHCTF1 / RFU, TFRC / Fold change vs veh, TFRC / RFU, ZDHHC17 / Fold change vs veh, ZDHHC17 / RFU, NOM1 / Fold change vs veh, NOM1 / RFU, ARL8B / Fold change vs veh, ARL8B / RFU, ZBTB11 / Fold change vs veh, ZBTB11 / RFU, TAMM41 / Fold change vs veh, TAMM41 / RFU, KIAA1704 /// LOC100996395 / Fold change vs veh, KIAA1704 /// LOC100996395 / RFU, ING1 / Fold change vs veh, ING1 / RFU, TRMT61B / Fold change vs veh, TRMT61B / RFU, FUBP3 / Fold change vs veh, FUBP3 / RFU, TP53 / Fold change vs veh, TP53 / RFU, TNKS2 / Fold change vs veh, TNKS2 / RFU, ZFP14 / Fold change vs veh, ZFP14 / RFU, ACTR2 / Fold change vs veh, ACTR2 / RFU, PPP3R1 / Fold change vs veh, PPP3R1 / RFU, PIK3R1 / Fold change vs veh, PIK3R1 / RFU, HNRNPA1 / Fold change vs veh, HNRNPA1 / RFU, RNF170 / Fold change vs veh, RNF170 / RFU, ZNF28 / Fold change vs veh, ZNF28 / RFU, RNGTT / Fold change vs veh, RNGTT / RFU, OGT / Fold change vs veh, OGT / RFU, BRD1 / Fold change vs veh, BRD1 / RFU, MARS / Fold change vs veh, MARS / RFU, ZNF655 / Fold change vs veh, ZNF655 / RFU, FAHD1 / Fold change vs veh, FAHD1 / RFU, BDP1 / Fold change vs veh, BDP1 / RFU, LRRCC1 / Fold change vs veh, LRRCC1 / RFU, ARID1A / Fold change vs veh, ARID1A / RFU, ZNF146 / Fold change vs veh, ZNF146 / RFU, ZNF330 / Fold change vs veh, ZNF330 / RFU, GPN3 / Fold change vs veh, GPN3 / RFU, C9orf123 / Fold change vs veh, C9orf123 / RFU, N4BP2L2 / Fold change vs veh, N4BP2L2 / RFU, ARFIP1 / Fold change vs veh, ARFIP1 / RFU, FAM179B / Fold change vs veh, FAM179B / RFU, BCL10 / Fold change vs veh, BCL10 / RFU, UHRF1BP1L / Fold change vs veh, UHRF1BP1L / RFU, BET1 / Fold change vs veh, BET1 / RFU, CNOT2 / Fold change vs veh, CNOT2 / RFU, ZNF268 / Fold change vs veh, ZNF268 / Fold change vs veh, ZNF507 / RFU, DGCR2 / Fold change vs veh, DGCR2 / RFU, WDSUB1 / Fold change vs veh, WDSUB1 / Fold change vs veh, HSP90B1 /// MIR3652 / RFU, ADSS / Fold change vs veh, ADSS / RFU, GK / Fold change vs veh, GK / RFU, ZNF148 / Fold change vs veh, ZNF148 / RFU, TAF9 / Fold change vs veh, TAF9 / RFU, SLC1A5 / Fold change vs veh, SLC1A5 / RFU, SLMO2 / Fold change vs veh, SLMO2 / RFU, ABCC4 / Fold change vs veh, ABCC4 / RFU, LOC101060439 /// RAP1B / Fold change vs veh, LOC101060439 /// RAP1B / RFU, RFX7 / Fold change vs veh, RFX7 / RFU, GTPBP10 / Fold change vs veh, GTPBP10 / RFU, CNEP1R1 / Fold change vs veh, CNEP1R1 / RFU, BIVM-ERCC5 /// ERCC5 / Fold change vs veh, BIVM-ERCC5 /// ERCC5 / RFU, ILF3 / Fold change vs veh, ILF3 / RFU 11762660_at / Fold change /veh 11762660_at / RFU VCAN (11757783_s_at) / Fold change /veh VCAN (11757783_s_at) / RFU DDX43 (11728927_at) / Fold change /veh DDX43 (11728927_at) / RFU KRT8 (11758188_x_at) / Fold change /veh KRT8 (11758188_x_at) / RFU NKD1 (11759106_at) / Fold change /veh NKD1 (11759106_at) / RFU SRD5A1 (11742802_a_at) / Fold change /veh SRD5A1 (11742802_a_at) / RFU TPSAB1 /// TPSB2 (11721975_s_at) / Fold change /veh TPSAB1 /// TPSB2 (11721975_s_at) / RFU GSTM3 (11746129_a_at) / Fold change /veh GSTM3 (11746129_a_at) / RFU IL23R (11737362_x_at) / Fold change /veh IL23R (11737362_x_at) / RFU TMEM51 (11727254_a_at) / Fold change /veh TMEM51 (11727254_a_at) / RFU PIWIL2 (11732686_x_at) / Fold change /veh PIWIL2 (11732686_x_at) / RFU ORM1 (11744905_x_at) / Fold change /veh ORM1 (11744905_x_at) / RFU CCDC152 (11743942_at) / Fold change /veh CCDC152 (11743942_at) / RFU ECM1 (11717891_a_at) / Fold change /veh ECM1 (11717891_a_at) / RFU IL23R (11748794_a_at) / Fold change /veh IL23R (11748794_a_at) / RFU TNFAIP8L3 (11732012_x_at) / Fold change /veh TNFAIP8L3 (11732012_x_at) / RFU MBOAT4 (11741988_at) / Fold change /veh MBOAT4 (11741988_at) / RFU 11764193_at / Fold change /veh 11764193_at / RFU TMEM53 (11763286_at) / Fold change /veh TMEM53 (11763286_at) / RFU MAGEB2 (11727129_at) / Fold change /veh MAGEB2 (11727129_at) / RFU TMEM200A (11744735_a_at) / Fold change /veh TMEM200A (11744735_a_at) / RFU CCDC152 (11751479_a_at) / Fold change /veh CCDC152 (11751479_a_at) / RFU FAM211A (11726209_a_at) / Fold change /veh FAM211A (11726209_a_at) / RFU RGS16 (11746705_a_at) / Fold change /veh RGS16 (11746705_a_at) / RFU VCAN (11755009_s_at) / Fold change /veh VCAN (11755009_s_at) / RFU RHOB (11743442_s_at) / Fold change /veh RHOB (11743442_s_at) / RFU RGS16 (11720943_a_at) / Fold change /veh RGS16 (11720943_a_at) / RFU RGS16 (11720944_at) / Fold change /veh RGS16 (11720944_at) / RFU, VPS4B / Fold change vs veh, VPS4B / RFU, CREB1 / Fold change vs veh, CREB1 / RFU, DNAJC13 / Fold change vs veh, DNAJC13 / RFU, GNAQ / Fold change vs veh, GNAQ / RFU, CDK5R1 / Fold change vs veh, CDK5R1 / RFU, ZRANB3 / Fold change vs veh, ZRANB3 / RFU, CUL4A / Fold change vs veh, CUL4A / RFU, CCNY / Fold change vs veh, CCNY / RFU, UFL1 / Fold change vs veh, UFL1 / RFU, COG3 / Fold change vs veh, COG3 / RFU, DIAPH2 / Fold change vs veh, DIAPH2 / RFU, SKA2 / Fold change vs veh, SKA2 / RFU, AFF3 / Fold change vs veh, AFF3 / RFU, LMF1 / Fold change vs veh, LMF1 / RFU, IPO11 / Fold change vs veh, IPO11 / RFU, DFFB / Fold change vs veh, DFFB / RFU, FOXP1 / Fold change vs veh, FOXP1 / RFU, CARD8 / Fold change vs veh, CARD8 / RFU, STRN3 / Fold change vs veh, STRN3 / RFU, ADK / Fold change vs veh, ADK / RFU, RASSF2 / Fold change vs veh, RASSF2 / RFU, WIPF1 / Fold change vs veh, WIPF1 / RFU, LARP1B / Fold change vs veh, LARP1B / RFU, RASA1 / Fold change vs veh, RASA1 / RFU, RB1 / Fold change vs veh, RB1 / RFU, PPFIA1 / Fold change vs veh, PPFIA1 / RFU, MAT2A / Fold change vs veh, MAT2A / RFU, CCT5 / Fold change vs veh, CCT5 / RFU, WDR92 / Fold change vs veh, WDR92 / RFU, CUX1 / Fold change vs veh, CUX1 / RFU, TTC7A / Fold change vs veh, TTC7A / RFU, TMEM135 / Fold change vs veh, TMEM135 / RFU, DEPTOR / Fold change vs veh, DEPTOR / RFU, CPM / Fold change vs veh, CPM / RFU, DNAJB6 / Fold change vs veh, DNAJB6 / RFU, CACNA2D3 / Fold change vs veh, CACNA2D3 / RFU, DTX4 / Fold change vs veh, DTX4 / RFU, TFCP2 / Fold change vs veh, TFCP2 / RFU, GMCL1 /// GMCL1P1 / Fold change vs veh, GMCL1 /// GMCL1P1 / RFU, AEBP2 / Fold change vs veh, AEBP2 / RFU, SNHG1 /// SNORD22 /// SNORD25 /// SNORD26 /// SNORD27 /// SNORD28 /// SNORD29 /// SNORD31 / Fold change vs veh, SNHG1 /// SNORD22 /// SNORD25 /// SNORD26 /// SNORD27 /// SNORD28 /// SNORD29 /// SNORD31 / Fold change (Aza/veh), C12orf56 (ProbeSet 11735607_a_at) / Fold change (ACY-1035/veh), C12orf56 (ProbeSet 11735607_a_at) / Fold change (Aza/veh), FGFR1OP (ProbeSet 11751329_s_at) / Fold change (ACY-1035/veh), FGFR1OP (ProbeSet 11751329_s_at) / Fold change (Aza/veh), VPS36 (ProbeSet 11739960_a_at) / Fold change (ACY-1035/veh), VPS36 (ProbeSet 11739960_a_at) / RFU SYPL1 (11715823_x_at) / Fold change /veh SYPL1 (11715823_x_at) / RFU IGFBP7 (11715501_s_at) / Fold change /veh IGFBP7 (11715501_s_at) / RFU REEP3 (11722064_at) / Fold change /veh REEP3 (11722064_at) / RFU IGLL1 (11728026_x_at) / Fold change /veh IGLL1 (11728026_x_at): dose or concentration left out as unconfirmed
Details: ProbeSet 11721521_at; LIST B

Nc1ccc(-c2cccs2)cc1NC(=O)c1ccc2c(c1)cc(C1CC1)n2CCN1CCOCC1 [ACY-1035]
RFU, ZDHHC17: 49.20 RFU
